Values after ≈ are worked out from the molar mass of the structure shown.
Assays:
[1] = tested on: Jurkat (acute lymphoblastic leukemia, ALL); experiment: MTT growth inhibition of leukemia cells, 72 h; type: cell-based, human; conditions: Homo sapiens, 72 h; for IC50: read-out: IC50; for IC90: read-out: IC90
Method in brief: (§1)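 Readout is MTT viable-cell determination after 72 h exposure (37° C, 5% CO2) to compounds added at several concentrations one day after plating 6000 cells/well. Medium RPMI-1640 plus 10% fetal bovine serum; working solutions made from a 10 mg/mL DMSO stock.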

[2] = tested on: NB4 (acute promyelocytic leukemia, AML); experiment: MTT growth inhibition of leukemia cells, 72 h; type: cell-based, human; conditions: Homo sapiens, NB4, 72 h; for IC50: read-out: IC50; for IC90: read-out: IC90
Method in brief: as §1

[3] = tested on: H9 (acute lymphoblastic leukemia, ALL); experiment: MTT growth inhibition of leukemia cells, 72 h; type: cell-based, human; conditions: Homo sapiens, H9, 72 h; for IC50: read-out: IC50; for IC90: read-out: IC90
Method in brief: as §1

[4] = tested on: K562/adr (drug-resistant, chronic myeloid leukemia, CML); experiment: MTT growth inhibition of leukemia cells, 72 h; type: cell-based, human; conditions: Homo sapiens, K562/Adr; for IC50: read-out: IC50; for IC90: read-out: IC90
Method in brief: as §1

[5] = tested on: Kasumi-1 (acute myeloid leukemia M2 type, AML-M2); experiment: MTT growth inhibition of leukemia cells, 72 h; type: cell-based, human; conditions: Homo sapiens, Kasumi-1, 72 h; for IC50: read-out: IC50; for IC90: read-out: IC90
Method in brief: as §1

[6] = tested on: MGC 803 (human gastric cancer cell); experiment: MTT growth inhibition of human solid tumor cells, 72 h; type: cell-based; conditions: Homo sapiens, MGC-803, 72 h; for IC50: read-out: IC50; for IC90: read-out: IC90
Method in brief: (§2)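 We plate 4000 cells into each well, culture them 24 h (37° C, 5% CO2, DMEM High Glucose plus 10% fetal bovine serum), add compound dilutions, mix uniformly and measure viable cell concentration.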

[7] = tested on: A549 (human lung cancer); experiment: as above; type: cell-based; conditions: Homo sapiens, A549, 72 h; for IC50: read-out: IC50; for IC90: read-out: IC90
Method in brief: as §2

[8] = tested on: Hep G2 (human liver cancer cell); experiment: as above; type: cell-based; conditions: Homo sapiens, HepG2, Hep G2, 72 h; for IC50: read-out: IC50; for IC90: read-out: IC90
Method in brief: as §2

[9] = tested on: SK-OV-3 (ovarian cancer cell); experiment: as above; type: cell-based; conditions: Homo sapiens, SK-OV-3, 72 h; for IC50: read-out: IC50; for IC90: read-out: IC90
Method in brief: as §2

[10] = tested on: PANC-1 (pancreatic cancer); experiment: as above; type: cell-based; conditions: Homo sapiens, PANC-1, 72 h; for IC50: read-out: IC50; for IC90: read-out: IC90
Method in brief: as §2

[11] = tested on: CNE (nasopharyngeal carcinoma cell); experiment: as above; type: cell-based; conditions: Homo sapiens; for IC50: read-out: IC50; for IC90: read-out: IC90
Method in brief: as §2

[12] = tested on: U87 MG (malignant glioma cell); experiment: as above; type: cell-based; conditions: Homo sapiens, U-87 MG, U87-MG, 72 h; for IC50: read-out: IC50; for IC90: read-out: IC90
Method in brief: as §2

[13] = tested on: Hep-2 (laryngeal carcinoma); experiment: as above; type: cell-based; conditions: Homo sapiens, HEp-2, 72 h; for IC50: read-out: IC50; for IC90: read-out: IC90
Method in brief: as §2

[14] = tested on: Hela (human cervical cancer cell); experiment: as above; type: cell-based; conditions: Homo sapiens, HeLa, 72 h; for IC50: read-out: IC50; for IC90: read-out: IC90
Method in brief: as §2

[15] = tested on: Becap37 (human breast cancer cell); experiment: as above; type: cell-based; conditions: Homo sapiens, Becap-37, 72 h; for IC50: read-out: IC50; for IC90: read-out: IC90
Method in brief: as §2

[16] = tested on: MG63 (osteosarcoma); experiment: as above; type: cell-based; conditions: Homo sapiens, MG-63, 72 h; for IC50: read-out: IC50; for IC90: read-out: IC90
Method in brief: as §2

[17] = tested on: PC-3 (prostate cancer); experiment: as above; type: cell-based; conditions: Homo sapiens, PC-3, 72 h; for IC50: read-out: IC50; for IC90: read-out: IC90
Method in brief: as §2

[18] = tested on: CaES-17 (esophageal cancer cell); experiment: as above; type: cell-based; conditions: Homo sapiens, CaEs17, CaEs-17, 72 h; for IC50: read-out: IC50; for IC90: read-out: IC90
Method in brief: as §2

[19] = tested on: RKO (human colon adenocarcinoma cell); experiment: as above; type: cell-based; conditions: Homo sapiens; for IC50: read-out: IC50; for IC90: read-out: IC90
Method in brief: as §2

[20] = tested on: RPMI8226 (multiple myeloma); experiment: MTT growth inhibition of multiple myeloma cells, 72 h; type: cell-based, human; conditions: Homo sapiens, RPMI 8226, 72 h; for IC50: read-out: IC50; for IC90: read-out: IC90
Method in brief: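 Viability read by MTT after 72 h at 37° C, 5% CO2: compounds from a 10 mg/mL DMSO stock were diluted in medium and added at several concentrations to 6000 RPMI8226 cells per well in 1640 medium plus 10% FBS.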

Compound	IC50 [1] [µg/mL]	IC90 [1] [µg/mL]	IC50 [2] [µg/mL]	IC90 [2] [µg/mL]	IC50 [3] [µg/mL]	IC90 [3] [µg/mL]	IC50 [4] [µg/mL]	IC90 [4] [µg/mL]	IC50 [5] [µg/mL]	IC90 [5] [µg/mL]	IC50 [6] [µg/mL]	IC90 [6] [µg/mL]	IC50 [7] [µg/mL]	IC90 [7] [µg/mL]	IC50 [8] [µg/mL]	IC90 [8] [µg/mL]	IC50 [9] [µg/mL]	IC90 [9] [µg/mL]	IC50 [10] [µg/mL]	IC90 [10] [µg/mL]	further results
CCN(C)Cc1oc2c(c1C)C(=O)C(=O)c1c-2ccc2c(C)cccc12 [BS-TA-B03]	2.36 (≈ 6.79 µM)	6.15 (≈ 17.7 µM)	0.92 (≈ 2.65 µM)	3.01 (≈ 8.66 µM)	3.3 (≈ 9.5 µM)	6.8 (≈ 19.6 µM)	1.22 (≈ 3.51 µM)	2.69 (≈ 7.74 µM)	0.81 (≈ 2.33 µM)	2 (≈ 5.76 µM)	3.86 (≈ 11.1 µM)	7.99 (≈ 23 µM)	0.8 (≈ 2.3 µM)	4.43 (≈ 12.8 µM)	4.69 (≈ 13.5 µM)	22.1 (≈ 63.6 µM)	12.8 (≈ 36.9 µM)	21.7 (≈ 62.4 µM)	3.14 (≈ 9.04 µM)	16 (≈ 46.1 µM)	IC50 [11]: 8.8 µg/mL (≈ 25.3 µM); IC90 [11]: 43.6 µg/mL (≈ 125 µM); IC50 [12]: 2.36 µg/mL (≈ 6.79 µM); IC90 [12]: 3.85 µg/mL (≈ 11.1 µM); IC50 [13]: 6.11 µg/mL (≈ 17.6 µM); IC90 [13]: 18.5 µg/mL (≈ 53.1 µM); IC50 [14]: 3.99 µg/mL (≈ 11.5 µM); IC90 [14]: 11 µg/mL (≈ 31.5 µM); IC50 [15]: 4 µg/mL (≈ 11.5 µM); IC90 [15]: 9.37 µg/mL (≈ 27 µM); IC50 [16]: 4.53 µg/mL (≈ 13 µM); IC90 [16]: 13 µg/mL (≈ 37.4 µM); IC50 [17]: 5.39 µg/mL (≈ 15.5 µM); IC90 [17]: 12.3 µg/mL (≈ 35.5 µM); IC50 [18]: 5.55 µg/mL (≈ 16 µM); IC90 [18]: 10.3 µg/mL (≈ 29.8 µM); IC50 [19]: 0.49 µg/mL (≈ 1.41 µM); IC90 [19]: 14.6 µg/mL (≈ 41.9 µM); IC50 [20]: 2.83 µg/mL (≈ 8.15 µM); IC90 [20]: 5.87 µg/mL (≈ 16.9 µM)
Cc1c(CNCC2CCCCC2)oc2c1C(=O)C(=O)c1c-2ccc2c(C)cccc12 [BS-TA-B06]	5.25 (≈ 13.1 µM)	16 (≈ 39.8 µM)	2.13 (≈ 5.31 µM)	7.29 (≈ 18.2 µM)	3.2 (≈ 7.97 µM)	14.1 (≈ 35.1 µM)	0.81 (≈ 2.02 µM)	1.8 (≈ 4.48 µM)	0.57 (≈ 1.42 µM)	1.73 (≈ 4.31 µM)	7.82 (≈ 19.5 µM)	> 16	1.59 (≈ 3.96 µM)	10 (≈ 24.9 µM)	13.5 (≈ 33.6 µM)	> 16	> 16	> 16	1.57 (≈ 3.91 µM)	16.7 (≈ 41.6 µM)	IC50 [11]: 11.8 µg/mL (≈ 29.4 µM); IC90 [11]: > 16 µg/mL; IC50 [12]: 6.5 µg/mL (≈ 16.2 µM); IC90 [12]: > 16 µg/mL; IC50 [13]: 9.23 µg/mL (≈ 23 µM); IC90 [13]: > 16 µg/mL; IC50 [14]: 7.49 µg/mL (≈ 18.7 µM); IC90 [14]: > 16 µg/mL; IC50 [15]: 5.9 µg/mL (≈ 14.7 µM); IC90 [15]: > 16 µg/mL; IC50 [16]: 4.76 µg/mL (≈ 11.9 µM); IC90 [16]: > 16 µg/mL; IC50 [17]: 10.3 µg/mL (≈ 25.8 µM); IC90 [17]: 24.5 µg/mL (≈ 60.9 µM); IC50 [18]: ≥ 19.3 µg/mL; IC90 [18]: > 16 µg/mL; IC50 [19]: 3.42 µg/mL (≈ 8.52 µM); IC90 [19]: > 16 µg/mL; IC50 [20]: 6.16 µg/mL (≈ 15.3 µM); IC90 [20]: 16 µg/mL (≈ 39.8 µM)
